Experimental data: patent US20210267939A1, “COMPOSITIONS AND METHODS FOR TREATING NAFLD/NASH AND RELATED DISEASE PHENOTYPES” (priority 2018, published 2021)
Entries after “also recorded” stand apart in the source; their conditions may differ.

How the values were obtained:
Format in all cases: in vivo
Zucker fatty rats [1] = assay: Circulating BCAA and BCKA in treated Zucker fatty rats; details: ZFR, BT2 20 mg/kg i.p. daily for one week, vs vehicle
Method: Individually housed, male 12 week-old Zucker fatty rats (ZFR, Charles River Laboratories) maintained on a custom control low fat (LF) diet (A11072001, Research Diets) were used for the BDK inhibition and PPM1K overexpression studies. For the BDK inhibition study, ZFR were administered the small molecule BDK inhibitor 3,6-dichlorobenzo[b]thiophene-2-carboxylic acid (BT2, Sigma) daily at a dose of 20 mg/kg dissolved in 200 ul of sterile dimethylsulfoxide by i.p. injection for 7 days. The control group was administered an equal volume of vehicle each day. […]
Metabolite profiling: Amino acids were measured in plasma and liver samples, and acylcarnitines in liver samples. […]
Plasma concentrations of the alpha-keto acids of leucine (α-keto-isocaproate, KIC), isoleucine (α-keto-β-methylvalerate, KMV) and valine (α-keto-isovalerate, KIV) were measured by LC-MS as previously described (Glynn et al., 2015; White et al., 2016). Other plasma analytes were measured on a Beckman DxC600 autoanalyzer, using reagents for lactate, total cholesterol, and triglycerides from Beckman, and non-esterified fatty acids (NEFA) and ketones (total and 3-hydroxybutyrate) from Wako (Richmond, Va.). Glycerol was measured using reagents from TG-B by Roche Diagnostics (Indianapolis, Ind.). Liver triglycerides were quantified using the triglyceride quantification kit from Abcam. […]

Zucker fatty rats [2] = assay: Indirect calorimetry in BT2-treated Zucker fatty rats; details: ZFR, BT2 20 mg/kg i.p., day 6, hours following administration
Method: Individually housed, male 12 week-old Zucker fatty rats (ZFR, Charles River Laboratories) maintained on a custom control low fat (LF) diet (A11072001, Research Diets) were used for the BDK inhibition and PPM1K overexpression studies. For the BDK inhibition study, ZFR were administered the small molecule BDK inhibitor 3,6-dichlorobenzo[b]thiophene-2-carboxylic acid (BT2, Sigma) daily at a dose of 20 mg/kg dissolved in 200 ul of sterile dimethylsulfoxide by i.p. injection for 7 days. The control group was administered an equal volume of vehicle each day. On day 6, following an overnight fast, ZFR were subjected to a 1 g/kg i.p. glucose tolerance test (GTT) precisely 1 hr after administration of BT2 (20 mg/kg i.p.) or vehicle. The glucose tolerance test was performed as described (White, et al., 2016). Following the GTT, rats were returned to their normal cages and provided free access to food and water. Indirect calorimetry was performed in a second cohort of BT2 treated rats on day 6 of BT2 administration. Here ad-libitum fed rats were injected with BT2 (20 mg/kg i.p.) or vehicle immediately prior to being placed in an eight-chamber Oxymax system (Columbus Instruments) for seven hours. During their time in the metabolic cages all rats had free access to food and water. […]

BCKDH = assay: Tissue BCKDH activity assay in treated Zucker fatty rats; details: ZFR, BT2 20 mg/kg i.p. daily for one week, vs vehicle
Method: Individually housed, male 12 week-old Zucker fatty rats (ZFR, Charles River Laboratories) maintained on a custom control low fat (LF) diet (A11072001, Research Diets) were used for the BDK inhibition and PPM1K overexpression studies. For the BDK inhibition study, ZFR were administered the small molecule BDK inhibitor 3,6-dichlorobenzo[b]thiophene-2-carboxylic acid (BT2, Sigma) daily at a dose of 20 mg/kg dissolved in 200 ul of sterile dimethylsulfoxide by i.p. injection for 7 days. The control group was administered an equal volume of vehicle each day. On day 6, following an overnight fast, ZFR were subjected to a 1 g/kg i.p. glucose tolerance test (GTT) precisely 1 hr after administration of BT2 (20 mg/kg i.p.) or vehicle. The glucose tolerance test was performed as described (White, et al., 2016). Following the GTT, rats were returned to their normal cages and provided free access to food and water. Indirect calorimetry was performed in a second cohort of BT2 treated rats on day 6 of BT2 administration. Here ad-libitum fed rats were injected with BT2 (20 mg/kg i.p.) or vehicle immediately prior to being placed in an eight-chamber Oxymax system (Columbus Instruments) for seven hours. During their time in the metabolic cages all rats had free access to food and water. The next morning, rats were euthanized in the fed state precisely 1 hr following a final dose of BT2 (20 mg/kg i.p.) or vehicle.
For the PPM1K overexpression study, male 12 week-old ZFR were administered two doses of cyclosporine (15 mg/kg i.p., Novartis) prior to adenovirus administration. The first dose of cyclosporine was given 24 hours prior and the second dose was administered immediately prior to tail vein injection of Ad-CMV-PPM1K or Ad-CMV-GFP adenovirus (2×10^12 viral particles per kg). Both viruses use the CMV promoter to drive transgene expression. […]
BCKDH activity assay: Tissue BCKDH activity was measured. […] The ^14CO2 contained in the trap was counted in a Beckman Coulter LS6500 liquid scintillation counter.

O=C(O)c1sc2cc(Cl)ccc2c1Cl [BT2, 3,6-dichlorobenzo[b]thiophene-2-carboxylic acid]
circulating BCAA levels (Zucker fatty rats [1]): lowered | circulating branched-chain α-ketoacids (BCKA) (Zucker fatty rats [1]; 20 mg/kg): more dramatic lowering; also recorded: potently lowers | respiratory exchange ratio (RER) (Zucker fatty rats [2]): lowered | BCKDH enzyme activity in heart (BCKDH): increased | BCKDH enzyme activity in liver (BCKDH): increased | BCKDH enzyme activity in skeletal muscle (BCKDH): small increment
